The test system of this assay is Streptococcus mutans. Put plainly: Inhibition of Streptococcus mutans by penicillin with or without MOS (Example 12). Conditions: BHI media.

As to penicillin, the “inhibition of S. mutans growth” value is reported as 10%.

The record behind these values is patent US20250082659A1, “MANNO-OLIGOSACCHARIDE COMPOSITIONS FOR PATHOGEN CONTROL” (priority 2022, published 2025).
